The structures appear in SMILES notation. pIC50: −log10 of the molar value.

The target of test [1] is T1, adenosine A2a (human) membrane (Homo sapiens, UniProt P29274).
T1 construct: purchased PerkinElmer RBHA2AM400UA
Briefly: A2A adenosine receptor radioligand binding assay ([3H] CGS-21680). To be noted: radioligand [3H] CGS-21680 6 nM, RT 2 hours. The protocol:
A second A2A adenosine receptor radioligand binding assay protocol was used. The protocol used adenosine A2a (human) membrane (PerkinElmer RBHA2AM400UA) at a concentration of […]/well/100 μl and the radioligand [3H] CGS-21680 (Cat No. PerkinElmer-NET1021250UC) at a final concentration of 6 nM. Testing compounds were diluted with DMSO to make 8-point 4-fold serial dilution, starting at 0.2 mM. CGS-15943 was the reference compound. 1 μl of compounds/high control/low control was transferred to the assay plate according to a plate map, followed by 100 μl of membrane stocks and 100 μl of radioligand, in assay buffer (50 mM Tris-HCl, 10 mM MgCl2, 1 mM EDTA, pH 7.4). The plate was sealed and incubated at RT for 2 hours. Unifilter-96 GF/C filter plates (Perkin Elmer Cat #6005174) were soaked with 50 μl of 0.3% PEI per well for at least 0.5 hour at room temperature. When the binding assays were completed, the reaction mixtures were filtered through GF/C plates using Perkin Elmer Filtermate Harvester, and each plate washed 4 times with cold wash buffer (50 mM Tris-HCl, 154 mM NaCl, pH 7.4). The filter plates were dried for 1 hour at 50 degrees. After drying, the bottom of the filter plate wells was sealed, 50 μl of Perkin Elmer Microscint 20 cocktail was added, and the top of the filter plate was sealed. ^3H trapped on the filter was counted using Perkin Elmer MicroBeta2 Reader. The data were analyzed with GraphPad Prism 5 to obtain binding IC50 values. The “Inhibition [% Control]” was calculated using the equation: % Inh=(1−Background subtracted Assay value/Background subtracted HC value)*100, where HC is high control.

The target in test [2] is T2, human recombinant adenosine A2A receptor (Homo sapiens, UniProt P29274).
T2 construct: expressed in transfected cells; host or cells: HEK-293
T2 sequence (P29274 whole entry): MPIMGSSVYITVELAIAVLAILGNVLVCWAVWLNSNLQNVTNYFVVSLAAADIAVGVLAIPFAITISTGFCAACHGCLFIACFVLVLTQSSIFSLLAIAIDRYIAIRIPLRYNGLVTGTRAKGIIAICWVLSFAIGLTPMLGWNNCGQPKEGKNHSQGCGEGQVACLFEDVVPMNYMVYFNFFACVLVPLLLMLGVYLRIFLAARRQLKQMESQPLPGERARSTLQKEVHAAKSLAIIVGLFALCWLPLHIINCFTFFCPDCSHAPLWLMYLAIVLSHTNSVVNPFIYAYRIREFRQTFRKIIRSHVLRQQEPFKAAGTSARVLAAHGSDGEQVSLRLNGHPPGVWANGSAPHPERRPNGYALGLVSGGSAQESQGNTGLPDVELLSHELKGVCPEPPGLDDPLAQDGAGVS
Put plainly: cAMP assay (Assay 2) in HEK-293 cells expressing A2A receptor. Format: cell-based. The note with it: HEK-293 cells expressing human recombinant adenosine A2A receptor; reducing A2A cAMP levels. Here is the method: The functional activity of compound 1.5 was tested using Assay 2 below, to detect the presence of cAMP. Assay 1 is an alternative assay for this purpose. Activation of G-protein coupled receptors (such as A2A) results in activation of adenylyl cyclase which converts ATP into cAMP which is used as a downstream signaling molecule. Molecules which act as GPCR (or specifically A2A receptor) antagonists cause a decrease in intracellular cAMP concentration.
Assay 2 (Table B2): This assay used HEK-293 cells expressing human recombinant adenosine A2A receptor that were grown prior to the test in media without antibiotic. 100 nL of test articles at 100× of final concentration were transferred to assay plate by Echo. Cells were washed twice with 5 mL of PBS and 10 pL of cells were mixed with 5 mL PBS. After aspirating the PBS and adding 1.5 mL versine, cells were incubated at 37° C. for 2-5 min. After centrifugation, 4 mL of medium was added and adjusted cell density to 5,000 cells/well with Stimulation Buffer. 10 pL of cells were aliquoted to the assay plate, centrifuged at 1000 rpm for 1 minute, and incubated for 60 minutes at room temperature. 5 pL 4× Eu-cAMP tracer solution and 5 pL 4× Ulight™-anti-cAMP solution were added to assay plate, followed by centrifugation and 60-minute incubation at room temperature. Plates were read on EnVision. […]

T1 sequence (P29274 whole entry): as above

One may read the pIC50 as the negative decadic logarithm of the IC50, by convention in mol/L. Turning to `O=c1ccc2nc(-c3ccc4ncccc4c3)c(-c3ccccc3)nc2[nH]1` [Compound 1.4, 3-phenyl-2-(quinolin-6-yl)pyrido[2,3-b]pyrazin-6(5H)-one], the pIC50 in test [1] was 8.26.

Take `O=c1cc[nH]c2nc(-c3ccccc3)c(-c3ccc4ncccc4c3)nc12` [Compound 1.5, 3-phenyl-2-(quinolin-6-yl)pyrido[2,3-b]pyrazin-8(5H)-one]: the pIC50 was 7.74 in test [1] and 6.49 in test [2]. `Cn1ccc(=O)c2nc(-c3ccc4ncccc4c3)c(-c3ccccc3)nc21` [Compound 1.8, 5-methyl-3-phenyl-2-(quinolin-6-yl)pyrido[2,3-b]pyrazin-8(5H)-one]: the pIC50 in test [1] is 6.02. Molecule `O=c1ccc2nc(-c3cc(Cl)c4ncccc4c3)c(-c3ccccc3)nc2[nH]1` [Compound 1.12, 2-(8-chloroquinolin-6-yl)-3-phenylpyrido[2,3-b]pyrazin-6(5H)-one] showed a pIC50 in test [1] of 8.18.

The record behind these values is patent US20230066315A1, “COMPOUNDS AND USES THEREOF” (Nuvation Bio Inc., priority 2019, published 2023).
